From US5221665A, “N-substituted amides” (Boehringer Ingelheim Pharmaceuticals, Inc., priority 1991, dated 1993)
≈ marks a conversion by molar mass, not a printed value.

Tests used:
[1] = target: T1, Human sputum elastase (HSE) / Human Leukocyte Elastase (HLE) (Homo sapiens, UniProt P08246); test: Elastase Inhibition--In Vitro Method (hydrolysis of MeO-Suc-Ala-Ala-Pro-Val-pNA, microtiter format); format: biochemical; conditions: for % inhib. (5 ug/mL) 0% HSA / % inhib. (5 ug/mL) 0.5% HSA: 5 ug/mL compound; for % inhib. (5 ug/mL) 0.5% HSA: 0.5% HSA added; for IC50: Table I, 0.5 mM substrate, 15 minutes pre-incubation
T1 construct: Human sputum elastase (HSE ) (Elasten Products Co., Pacific, Mo.); purchased Elasten Products Co., Pacific, Mo; host or cells: human sputum
T1 sequence (P08246 30-267): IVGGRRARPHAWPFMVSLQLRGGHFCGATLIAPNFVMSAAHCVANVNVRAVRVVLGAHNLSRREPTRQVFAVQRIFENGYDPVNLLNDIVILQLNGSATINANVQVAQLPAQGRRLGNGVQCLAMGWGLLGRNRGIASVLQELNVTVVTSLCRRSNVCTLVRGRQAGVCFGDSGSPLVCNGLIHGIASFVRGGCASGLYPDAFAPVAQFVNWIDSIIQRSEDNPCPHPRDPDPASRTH

[2] = target: T2, human neutrophil elastase (HNE) (Homo sapiens, UniProt P08246); test: Elastase Inhibition--Animal Model (acute hamster hemorrhage model, HNE instilled i.t.); format: in vivo, Syrian Golden Hamsters; conditions: compound 20 ug i.t. three to five minutes before 50 μg HNE i.t., lung lavage hemorrhage at 18 hours
T2 construct: purified preparations of human neutrophil elastase (HNE); purchased Elastin Products Co., Pacific, MO
T2 sequence (P08246 30-247 limits assumed): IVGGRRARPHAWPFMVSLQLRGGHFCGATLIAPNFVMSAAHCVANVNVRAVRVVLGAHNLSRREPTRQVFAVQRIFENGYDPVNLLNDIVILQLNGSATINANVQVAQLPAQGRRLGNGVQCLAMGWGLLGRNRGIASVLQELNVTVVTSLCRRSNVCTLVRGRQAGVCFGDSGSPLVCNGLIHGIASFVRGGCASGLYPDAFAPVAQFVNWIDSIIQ
Description: When instilled into the lungs of hamsters, purified preparations of human neutrophil elastase (HNE) will produce an emphysema like state. Acute challenge (18 hours) with 50 μg of HNE results in pulmonary hemorrhage which can be readily quantitated by measuring total RBC's (red blood count) and hemogloblin concentration of lung lavage samples.
HNE (obtained from Elastin Products Co., Pacific, MO) was diluted to 250 μg/mL in 0.9% sterile saline. Syrian Golden Hamsters, males, weighing approximately 90-130 grams, were obtained from Charles River Laboratories. The experiments described below are conducted using at least three animals per group.
Anesthesia required for the intratracheal administration of compounds and elastase was induced by the i.p. injection of Ketamine hydrochloride, 10 mg/100 gram body weight plus Xylazine, 1 mg/100 gram body weight.
Hamsters were anesthetized as described above and the trachea were surgically exposed. Test compounds were administered via 27g needle inserted directly into the trachea in 0.1 mL volume followed by 0.1 mL saline push. […]
Samples were concentrated by centrifugation (1500 rpm, 10 minutes) and brought up to 1.0 mL in saline. Homoglobin concentration was determined spectrophotometrically (540 nm) by the cyanmethemoglobin method using 200 μL sample to 2.5 mL cranmethoglobin reagent (Data Medical Associates, Arlington, Tx.).

% inhib. (5 ug/mL) 0% HSA [1]	% inhib. (5 ug/mL) 0.5% HSA [1]	IC50 [1]	% inhib. (20 ug, i.t.) [2]	Structure (SMILES)
95.1%	87.8%	0.432 µg/mL (≈ 0.693 µM)	–	COc1ccc(CCN(CC(=O)NC(C(=O)C(F)(F)F)C(C)C)C(=O)[C@@H](NC(=O)OCc2ccccc2)C(C)C)cc1OC (some centres unmarked) [3,4-Dimethoxyphenethyl; CBZ]
100%	99.4%	0.082 µg/mL (≈ 0.155 µM)	–	CC(C)C(NC(=O)CN(C(=O)[C@@H](NC(=O)OCc1ccccc1)C(C)C)C1CCCC1)C(=O)C(F)(F)F (some centres unmarked) [Cyclopentyl; CBZ]
99.8%	99.5%	0.045 µg/mL (≈ 0.0607 µM)	93.8%	CC(C)C(NC(=O)CN(C(=O)[C@@H](NC(=O)c1ccc(C(=O)NS(=O)(=O)c2ccc(Cl)cc2)cc1)C(C)C)C1CC2CCC1C2)C(=O)C(F)(F)F (stereo partly drawn) [[[4-(4-Chlorophenyl)sulfonylaminocarbonyl]phenyl-1-oxomethyl]-L-Valyl-N-(exo-bicyclo[2,2,1]hept-2-yl)-glycyl-N-[3-(1,1,1-trifluoro-4-methyl-2-oxypentyl)] amide.]
98.8%	96.3%	0.0838 µg/mL (≈ 0.103 µM)	90.2%	COc1ccc(CCN(CC(=O)NC(C(=O)C(F)(F)F)C(C)C)C(=O)[C@@H](NC(=O)c2ccc(C(=O)NS(=O)(=O)c3ccc(Cl)cc3)cc2)C(C)C)cc1OC (stereo partly drawn) [[[4-(4-Chlorophenylsulfonylaminocarbonyl]phenyl-1-oxomethyl]-L-Valyl-N-2-(3 , 4-dimethoxy)phenethyl] glycyl-N-[3-(1,1,1-trifluoro-4-methyl-2-oxypentyl)] amide]
